Laboratory results from patent US6552080B1, “Fungicidal compounds having a fluorovinyl-or fluoropropenyl-oxyphenyloxime moiety and process for the preparation thereof” (Korea Research Institute of Chemical Technology, priority 1999, dated 2003).
Read-outs that look alike come from different tables or passages of the source.

Key:
[1] = tested on: Botrytis cinerae; test: Fungicidal activity against Cucumber Gray Mold Rot (CGM) disease; assay type: in vivo; conditions: Cucumber Gray Mold Rot; concentration 50 ppm
[2] = tested on: Pyricularia oryzae Carvara KA301; assay type: in vivo; conditions: Rice Blast
[3] = tested on: Puccinia recondita; test: Fungicidal activity against Wheat Leaf Rust (WLR) disease; assay type: in vivo; conditions: Wheat Leaf Rust
[4] = tested on: Erysiphae graminis; test: Fungicidal activity against Barley Powdery Mildew (BPM) disease; assay type: in vivo; conditions: Barley Powdery Mildew
[5] = tested on: Rhizoctonia solani AG-1; test: Fungicidal activity against Rice Sheath Blight (RSB) disease; conditions: Rice Sheath Blight
Protocol: To examine fungicidal activity of the compounds of the present invention, each of the compounds listed in Table 3 and 4 was dissolved in 10% acetone to a concentration of 250 ppm, and Tween-20 was added thereto to a concentration of 250 or 500 ppm. 50 ml of the resulting solution was sprayed on leaves of a host plant. The plant was kept at room temperature for 24 hours to let the solvent evaporate, and then, a pathogenic fungus was inoculated thereonto. The plant was held in a humidity chamber for 24 hours, transferred to an plant growth room kept at 20 to 27° C. and a relative humidity of 60 to 80% and kept to induce disease. […] This procedure was repeated twice for each test. 10% Acetone solution containing 250 ppm of Tween-20 was used as a control.
The fungicidal activity of the compound of the present invention is repressed by a control value (C.V.) calculated as; [formula]
Rhizoctonia solani AG-1 was cultured on a PDA medium (potato 200 g, dextrose 20 g, agar 20 g and distilled water 1 ? for 3 days and the agar disc(diameter 0.6 cm) was inoculated and cultured on sterilized wheat bran medium in a 1 L bottle at 26 to 28° C. for 7 days. A mycelial mass was ground using a homogenizer, inoculated uniformly on soil of a pot wherein a Nakdong rice plant having 2 or 3 leaves and an height of 5 cm grew, and kept in humidity polyvinyl chamber for 5 days to induce RSB. L.A. on a leaf sheath was measured to calculate an C.V.

[6] = tested on: Phytophthora infestans; assay type: in vivo; conditions: Tomato Late Blight

SMILES	CGM (Fungicidal Activities, C.V.) [1] [%]	RCV (Fungicidal Activities, C.V.) ([2]; concentration 2 ppm) [%]	RCV (Fungicidal Activities, C.V.) ([2]; concentration 50 ppm) [%]	WLR (Fungicidal Activities, C.V.) ([3]; concentration 2 ppm) [%]	WLR (Fungicidal Activities, C.V.) ([3]; concentration 50 ppm) [%]	BPM (Fungicidal Activities, C.V.) ([4]; concentration 50 ppm) [%]	RSB (Fungicidal Activities, C.V.) ([5]; concentration 50 ppm) [%]	TLB (Fungicidal Activities, C.V.) ([6]; concentration 50 ppm) [%]	RCV (Fungicidal Activities, C.V.) ([2]; concentration 10 ppm) [%]	WLR (Fungicidal Activities, C.V.) ([3]; concentration 10 ppm) [%]	BPM (Fungicidal Activities, C.V.) ([4]; concentration 2 ppm) [%]	BPM (Fungicidal Activities, C.V.) ([4]; concentration 10 ppm) [%]	RSB (Fungicidal Activities, C.V.) ([5]; concentration 2 ppm) [%]	RSB (Fungicidal Activities, C.V.) ([5]; concentration 10 ppm) [%]	TLB (Fungicidal Activities, C.V.) ([6]; concentration 2 ppm) [%]	TLB (Fungicidal Activities, C.V.) ([6]; concentration 10 ppm) [%]
CNC(=O)C(=NOC)c1ccccc1CON=Cc1cccc(OC(F)=C(c2cccc(C)c2)C(F)(F)F)c1 [Compound 140]	0	86	97	0	100	86	64	0	–	–	–	–	–	–	–	–
COC=C(C(=O)OC)c1ccccc1CON=C(C)c1cccc(OC(F)=Cc2cccc(C)c2)c1 [Compound 41]	51	98	100	99	100	100	95	96	100	100	100	100	55	70	6	25
CON=C(C(=O)OC)c1ccccc1CON=Cc1cccc(OC(F)=Cc2ccc(F)cc2)c1 [Compound 27]	0	–	100	–	86	91	25	69	–	–	–	–	–	–	–	–
CO/C=C(/C(=O)OC)c1ccccc1CON=Cc1cccc(OC(F)=Cc2ccccc2)c1 [Compound 1]	69	71	100	96	100	100	65	12	86	100	99	100	–	–	–	–
CNC(=O)C(=NOC)c1ccccc1CON=Cc1cccc(OC(F)=Cc2cccc(Cl)c2)c1 [Compound 38]	0	97	100	99	100	100	64	0	–	–	87	–	–	–	–	–
CON=C(C(=O)OC)c1ccccc1CON=C(C)c1cccc(OC(F)=Cc2cccc(Cl)c2)c1 [Compound 75]	0	100	100	98	100	100	100	66	–	–	100	–	25	–	0	–
COC=C(C(=O)OC)c1ccccc1CON=C(C)c1cccc(OC(F)=Cc2cc(C)cc(C)c2)c1 [Compound 44]	5	85	100	96	100	100	75	71	95	100	100	100	–	–	–	–
